#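 1) Cells in 96-well plates. 2) Compound, 48 h, 5 concentrations. 3) Linear interpolation between surrounding doses. 4) Unreached endpoint = highest concentration. GI50 = concentration required for 50% inhibition of growth.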 Calls of active or inactive are those of the source. Rule as the data show it: active = GI50 up to about 1.1 µM and inactive = higher.
# Columns and labels:
# Test in all cases: NCI tumour cell line growth inhibition, 48 h
# SK-MEL-28 = system: SK-MEL-28
# RXF 393 = system: RXF 393
# A498 = system: A498
# NCI-H226 = system: NCI-H226
# HL-60 = system: HL-60
# UACC-257 = system: UACC-257
# PC-3 = system: PC-3
# SK-OV-3 = system: SK-OV-3
# KM12 = system: KM12
# EKVX = system: EKVX
# UACC-62 = system: UACC-62
# SF-295 = system: SF-295
# SNB-75 = system: SNB-75
# SF-539 = system: SF-539
# CCRF-CEM = system: CCRF-CEM
# HCT-116 = system: HCT-116
# SW-620 = system: SW-620
# HT-29 = system: HT-29
# OVCAR-3 = system: OVCAR-3
# M14 = system: M14
Structure (SMILES),GI50 (SK-MEL-28),GI50 (RXF 393),GI50 (A498),GI50 (NCI-H226),GI50 (HL-60),GI50 (UACC-257),GI50 (PC-3),GI50 (SK-OV-3),GI50 (KM12),GI50 (EKVX),GI50 (UACC-62),GI50 (SF-295),GI50 (SNB-75),GI50 (SF-539),GI50 (CCRF-CEM),GI50 (HCT-116),GI50 (SW-620),GI50 (HT-29),GI50 (OVCAR-3),GI50 (M14)
CN(C)c1ccc(NN=C2SC(=N\c3ccccc3)/C(=N/c3ccccc3)S2)cc1,> 100 µM (inactive),10 µM (inactive),50 µM (inactive),> 100 µM (inactive),2.97 µM (inactive),8.2 µM (inactive),> 100 µM (inactive),> 100 µM (inactive),18.2 µM (inactive),12.8 µM (inactive),9.38 µM (inactive),> 100 µM (inactive),27.3 µM (inactive),53.7 µM (inactive),5.2 µM (inactive),14.9 µM (inactive),53 µM (inactive),15.5 µM (inactive),–,–
CC(O)c1cc2c(s1)C(=O)c1sccc1C2=O (centres undefined),0.047 µM (active),0.172 µM (active),0.29 µM (active),0.207 µM (active),0.0859 µM (active),0.0183 µM (active),0.289 µM (active),1.49 µM (inactive),0.234 µM (active),0.254 µM (active),0.0519 µM (active),0.0792 µM (active),0.0902 µM (active),0.0401 µM (active),0.334 µM (active),0.151 µM (active),0.0453 µM (active),0.238 µM (active),0.187 µM (active),0.0185 µM (active)
NC(=O)C1CCCNC1 (centres undefined),> 100 µM (inactive),> 100 µM (inactive),> 100 µM (inactive),> 100 µM (inactive),> 100 µM (inactive),–,> 100 µM (inactive),> 100 µM (inactive),> 100 µM (inactive),> 100 µM (inactive),> 100 µM (inactive),> 100 µM (inactive),> 100 µM (inactive),> 100 µM (inactive),> 100 µM (inactive),> 100 µM (inactive),> 100 µM (inactive),> 100 µM (inactive),> 100 µM (inactive),> 100 µM (inactive)
CCN(CCCl)c1cc(CN(C)C)cc(NC(=O)C23CCC(C(=O)Nc4cc(CN(C)C)cc(N(CC)CCCl)c4)(CC2)CC3)c1,1.75 µM (inactive),1.37 µM (inactive),6.44 µM (inactive),1.4 µM (inactive),0.0157 µM (active),3.96 µM (inactive),0.351 µM (active),0.372 µM (active),1.67 µM (inactive),–,1.14 µM (inactive),1.59 µM (inactive),1.01 µM (active),0.443 µM (active),< 0.01 µM (active),1.11 µM (active),0.105 µM (active),0.229 µM (active),–,2.97 µM (inactive)
COc1ccc(OC)c(/N=C/c2cc(OC)c(OC)c(OC)c2)c1,> 89.1 µM (inactive),> 100 µM (inactive),> 100 µM (inactive),> 50.2 µM (inactive),48.9 µM (inactive),> 100 µM (inactive),> 100 µM (inactive),> 77.8 µM (inactive),> 80 µM (inactive),> 52.6 µM (inactive),> 100 µM (inactive),> 100 µM (inactive),> 100 µM (inactive),> 100 µM (inactive),22.9 µM (inactive),> 100 µM (inactive),> 91.2 µM (inactive),> 100 µM (inactive),–,> 100 µM (inactive)
O=C1OC2C(O)C(=O)OC2C1O (centres undefined),> 100 µM (inactive),> 100 µM (inactive),> 100 µM (inactive),> 100 µM (inactive),> 100 µM (inactive),> 100 µM (inactive),> 100 µM (inactive),> 100 µM (inactive),> 100 µM (inactive),> 100 µM (inactive),> 100 µM (inactive),> 100 µM (inactive),95.3 µM (inactive),> 100 µM (inactive),> 100 µM (inactive),> 100 µM (inactive),> 100 µM (inactive),> 100 µM (inactive),> 100 µM (inactive),> 100 µM (inactive)
COC(=O)CC1C2(C)C3=C(C)C(c4ccoc4)CC3OC2C2OC(=O)C3(C)C=CC(=O)C1(C)C23 (centres undefined),1.16 µM (inactive),1.3 µM (inactive),1.94 µM (inactive),2.13 µM (inactive),0.372 µM (active),1.95 µM (inactive),1.18 µM (inactive),4.11 µM (inactive),1.71 µM (inactive),1.36 µM (inactive),1.46 µM (inactive),3.22 µM (inactive),3.01 µM (inactive),0.869 µM (active),0.317 µM (active),0.889 µM (active),1.33 µM (inactive),0.839 µM (active),1.35 µM (inactive),1.32 µM (inactive)
COc1cc(C(c2cccc3ccccc23)N2C(=O)CCC2C(=O)O)cc(OC)c1OC (centres undefined),> 100 µM (inactive),> 100 µM (inactive),> 100 µM (inactive),> 100 µM (inactive),> 100 µM (inactive),> 100 µM (inactive),> 100 µM (inactive),> 100 µM (inactive),> 100 µM (inactive),> 100 µM (inactive),> 100 µM (inactive),> 100 µM (inactive),> 100 µM (inactive),> 100 µM (inactive),> 100 µM (inactive),> 100 µM (inactive),> 100 µM (inactive),> 100 µM (inactive),> 100 µM (inactive),> 100 µM (inactive)
C=C(CO)[C@H]1Oc2ccc(C(C)=O)cc2[C@@H]1O,> 100 µM (inactive),> 100 µM (inactive),> 100 µM (inactive),> 100 µM (inactive),> 100 µM (inactive),> 100 µM (inactive),> 100 µM (inactive),> 100 µM (inactive),> 100 µM (inactive),> 100 µM (inactive),> 100 µM (inactive),> 100 µM (inactive),95.1 µM (inactive),> 100 µM (inactive),> 100 µM (inactive),> 100 µM (inactive),> 100 µM (inactive),> 100 µM (inactive),> 100 µM (inactive),> 100 µM (inactive)
C(=N\C12CC3CC(CC(C3)C1)C2)/C1CCCCC1,–,> 100 µM (inactive),> 100 µM (inactive),> 100 µM (inactive),> 100 µM (inactive),> 100 µM (inactive),> 100 µM (inactive),–,> 100 µM (inactive),> 100 µM (inactive),> 100 µM (inactive),> 100 µM (inactive),> 100 µM (inactive),> 100 µM (inactive),> 100 µM (inactive),> 100 µM (inactive),> 100 µM (inactive),> 100 µM (inactive),> 100 µM (inactive),> 100 µM (inactive)
O=C1CSC2(CC(/C=C/c3ccccc3O)=NN2c2cccc(S(=O)(=O)O)c2)N1c1nc2ccccc2s1 (centres undefined),56.5 µM (inactive),54.6 µM (inactive),42.9 µM (inactive),22.2 µM (inactive),15.7 µM (inactive),41.7 µM (inactive),64 µM (inactive),–,30.6 µM (inactive),48.1 µM (inactive),29.4 µM (inactive),–,90.8 µM (inactive),16.3 µM (inactive),14.6 µM (inactive),38.3 µM (inactive),37.3 µM (inactive),45.4 µM (inactive),–,59.4 µM (inactive)
CC(=O)OC1C[C@@H](C)C2(C[C@H](O)c3ccoc3)C(=O)OC[C@]13C2CCC(O)C31CO1 (some centres undefined),> 100 µM (inactive),> 100 µM (inactive),> 100 µM (inactive),> 100 µM (inactive),> 10 µM (inactive),> 100 µM (inactive),> 100 µM (inactive),–,> 100 µM (inactive),–,> 100 µM (inactive),> 100 µM (inactive),> 100 µM (inactive),> 100 µM (inactive),> 100 µM (inactive),> 100 µM (inactive),–,> 100 µM (inactive),> 100 µM (inactive),> 100 µM (inactive)
CN(C)Cc1cc(C(=O)/C=C/c2c(Cl)cccc2Cl)cc(CN(C)C)c1O,8.49 µM (inactive),5.7 µM (inactive),9.27 µM (inactive),14.4 µM (inactive),2.07 µM (inactive),4.46 µM (inactive),5.64 µM (inactive),–,2.65 µM (inactive),10.9 µM (inactive),–,8.51 µM (inactive),3.34 µM (inactive),14.5 µM (inactive),3.74 µM (inactive),6.04 µM (inactive),4.12 µM (inactive),3.07 µM (inactive),5.7 µM (inactive),4.91 µM (inactive)
CC(=O)c1csc2c1C(=O)c1ccccc1C2=O,1.92 µM (inactive),10.2 µM (inactive),46.7 µM (inactive),1.58 µM (inactive),0.29 µM (active),1.46 µM (inactive),7.57 µM (inactive),38.1 µM (inactive),1.53 µM (inactive),5.78 µM (inactive),1.93 µM (inactive),1.55 µM (inactive),1.73 µM (inactive),2.08 µM (inactive),1.56 µM (inactive),2.24 µM (inactive),2.2 µM (inactive),2.02 µM (inactive),3.66 µM (inactive),1.07 µM (active)

# Source: ChEMBL document CHEMBL1201862, “PubChem BioAssay data set” (2004)
